Earlier results on one compound are cited in patent US20240358692A1, “TREATMENT OF SCLERODERMA” (Aisa Pharma, Inc., priority 2023, published 2024).

The conditions of the data set: oral dosing; cited from earlier work.

Take `CCOC(=O)C1=C(COCCN)NC(C)=C(C(=O)OC)C1c1ccccc1Cl` (stereo not shown) [amlodipine]: the “time to achieve maximal plasma concentrations (Tmax)” value was 10 h.
